Results reported in patent US20210369677A1, “SMALL MOLECULE ACTIVATORS OF POLYCYSTIN-2 (PKD2) AND USES THEREOF” (Northwestern University, priority 2020, published 2021).

Legend:
[1] = molecular target: T1, human polycystin-2 CTD EF hand (I704-P797) (Homo sapiens, UniProt Q13563); details: Yang et al., 2015; read-out: Kd previously reported for this peptide; cited from earlier work
T1 construct: The C-terminal fragment of the human polycystin-2 (I704-P797) was cloned into the PET19b vector; 10xHis (N); made in house; host or cells: E. coli BL21 (DE3)
T1 sequence (Q13563 704-797): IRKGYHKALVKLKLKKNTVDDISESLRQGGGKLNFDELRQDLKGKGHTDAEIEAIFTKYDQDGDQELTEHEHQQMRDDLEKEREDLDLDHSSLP

polycystin-2 = molecular target: T2, polycystin-2 (Homo sapiens, UniProt Q13563, C331S/C344S); format: cell-based; details: C331S:C334S double mutant
T2 construct: expressed in transfected cells
T2 sequence (Q13563 1-968 C331S/C344S): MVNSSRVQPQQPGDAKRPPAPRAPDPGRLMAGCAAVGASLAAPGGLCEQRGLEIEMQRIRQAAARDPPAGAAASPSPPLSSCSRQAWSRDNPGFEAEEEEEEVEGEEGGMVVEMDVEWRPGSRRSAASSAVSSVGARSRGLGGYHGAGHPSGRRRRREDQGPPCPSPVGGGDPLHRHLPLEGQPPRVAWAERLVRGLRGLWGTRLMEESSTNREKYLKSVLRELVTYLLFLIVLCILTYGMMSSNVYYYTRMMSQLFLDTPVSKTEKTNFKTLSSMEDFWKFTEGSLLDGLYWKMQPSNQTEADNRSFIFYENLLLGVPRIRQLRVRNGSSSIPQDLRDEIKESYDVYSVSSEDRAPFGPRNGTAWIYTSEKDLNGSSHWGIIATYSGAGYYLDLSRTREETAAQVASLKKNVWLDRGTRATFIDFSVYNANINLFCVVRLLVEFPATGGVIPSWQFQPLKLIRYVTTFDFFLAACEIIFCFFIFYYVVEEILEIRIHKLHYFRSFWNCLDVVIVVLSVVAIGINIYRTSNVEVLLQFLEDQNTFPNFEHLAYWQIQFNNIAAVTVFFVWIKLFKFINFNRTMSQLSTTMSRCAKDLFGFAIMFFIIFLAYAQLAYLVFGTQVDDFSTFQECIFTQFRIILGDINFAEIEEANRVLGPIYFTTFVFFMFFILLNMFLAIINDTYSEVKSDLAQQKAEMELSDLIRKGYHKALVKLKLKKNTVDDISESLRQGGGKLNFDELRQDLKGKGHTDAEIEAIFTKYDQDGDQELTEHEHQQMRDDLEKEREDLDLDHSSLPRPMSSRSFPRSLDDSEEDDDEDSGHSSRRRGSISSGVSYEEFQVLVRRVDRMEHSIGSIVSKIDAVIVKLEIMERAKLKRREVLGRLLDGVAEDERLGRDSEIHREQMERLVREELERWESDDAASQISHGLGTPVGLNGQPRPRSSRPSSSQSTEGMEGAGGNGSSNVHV

Row | Compound | Kd [1] [µM] | Effect on C331S:C334S channel cilia current (polycystin-2)
1 | [Ca+2] [Ca^2+, calcium] | 22 | 
2 | [Gd] [gadolinium] |  | retaining its sensitivity to pore block
